Test results from PubChem BioAssay AID1918949 (Molecular Pharmacology Branch, DTP, NCI, 2023).
pIC50: −log10 of the molar value. Where “and” joins values, the source holds several entries; their conditions need not be identical. Identical values can stand only once.

Test system: K24384-001-R-PDC complex spheroid viability
Experiment: Anticancer human tumor K24384-001-R-PDC patient-derived pancreatic adenocarcinoma cell line growth inhibition
Details: for viability, T/C: stronger effect = lower value; active = viability on the fitted dose curve at most 10% of control; inactive = the rest
How it was run: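 Multicellular complex spheroids of tumor cells with human endothelial cells (HUVEC) and mesenchymal stem cells; the LSD1 inhibitor iadademstat was combined with standard-of-care or investigational agents. Top concentration at or near clinical Cmax, half-log dilutions; final DMSO ≤0.25%.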

[1] = curve of first compound, second compound 0.1 µM
[2] = curve of first compound, second compound 0.316 µM
[3] = curve of first compound, second compound 1 µM
[4] = curve of first compound, second compound 3.16 µM
[5] = curve of first compound, second compound 10 µM
[6] = second compound 0.1 µM, first compound 0.00949 µM
[7] = second compound 0.1 µM, first compound 0.03 µM
[8] = second compound 0.1 µM, first compound 0.0949 µM
[9] = second compound 0.1 µM, first compound 0.3 µM
[10] = second compound 0.316 µM, first compound 0.00949 µM
[11] = second compound 0.316 µM, first compound 0.03 µM
[12] = second compound 0.316 µM, first compound 0.0949 µM
[13] = second compound 0.316 µM, first compound 0.3 µM
[14] = second compound 1 µM, first compound 0.00949 µM
[15] = second compound 1 µM, first compound 0.03 µM
[16] = second compound 1 µM, first compound 0.0949 µM
[17] = second compound 1 µM, first compound 0.3 µM
[18] = second compound 3.16 µM, first compound 0.00949 µM
[19] = second compound 3.16 µM, first compound 0.03 µM
[20] = second compound 3.16 µM, first compound 0.0949 µM
[21] = second compound 3.16 µM, first compound 0.3 µM
[22] = second compound 10 µM, first compound 0.00949 µM
[23] = second compound 10 µM, first compound 0.03 µM
[24] = second compound 10 µM, first compound 0.0949 µM
[25] = second compound 10 µM, first compound 0.3 µM
[26] = second compound 0.1 µM, first compound 0.0316 µM
[27] = second compound 0.1 µM, first compound 0.1 µM
[28] = second compound 0.1 µM, first compound 0.316 µM
[29] = second compound 0.1 µM, first compound 1 µM
[30] = second compound 0.316 µM, first compound 0.0316 µM
[31] = second compound 0.316 µM, first compound 0.1 µM
[32] = second compound 0.316 µM, first compound 0.316 µM
[33] = second compound 0.316 µM, first compound 1 µM
[34] = second compound 1 µM, first compound 0.0316 µM
[35] = second compound 1 µM, first compound 0.1 µM
[36] = second compound 1 µM, first compound 0.316 µM
[37] = second compound 1 µM, first compound 1 µM
[38] = second compound 3.16 µM, first compound 0.0316 µM
[39] = second compound 3.16 µM, first compound 0.1 µM
[40] = second compound 3.16 µM, first compound 0.316 µM
[41] = second compound 3.16 µM, first compound 1 µM
[42] = second compound 10 µM, first compound 0.0316 µM
[43] = second compound 10 µM, first compound 0.1 µM
[44] = second compound 10 µM, first compound 0.316 µM
[45] = second compound 10 µM, first compound 1 µM
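Note: spheroids exposed to agents for seven days before luminescence viability reading.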
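Throughout, for viability, T/C: 100% = DMSO vehicle control viability.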

COc1cc(C2c3cc4c(cc3C(OC3OC5COC(C)OC5C(O)C3O)C3COC(=O)C23)OCO4)cc(OC)c1O (centres undefined) + NC1CC1c1ccc(-c2cccc(O)c2)cc1
6.50: pIC50 [5]
6.58: pIC50 [1]
6.70: pIC50 [2]
6.56: pIC50 [4]
6.62: pIC50 [3]
inactive: viability, T/C [6] 96.9% | viability, T/C [7] 76.4% | viability, T/C [8] 62.4% | viability, T/C [9] 47.8% | viability, T/C (second compound 0.1 µM, first compound 0.949 µM) 40.5% | viability, T/C (second compound 0.1 µM, first compound 3 µM) 38.2% | viability, T/C [10] 83.1% | viability, T/C [11] 88.7% | viability, T/C [12] 63.4% | viability, T/C [13] 44.2% | viability, T/C (second compound 0.316 µM, first compound 0.949 µM) 39.9% | viability, T/C (second compound 0.316 µM, first compound 3 µM) 34.5% | viability, T/C [14] 74.7% | viability, T/C [15] 77.5% | viability, T/C [16] 60.5% | viability, T/C [17] 45.6% | viability, T/C (second compound 1 µM, first compound 0.949 µM) 40.8% | viability, T/C (second compound 1 µM, first compound 3 µM) 30.2% | viability, T/C [18] 73.5% | viability, T/C [19] 82.1% | viability, T/C [20] 66% | viability, T/C [21] 47.9% | viability, T/C (second compound 3.16 µM, first compound 0.949 µM) 41.5% | viability, T/C (second compound 3.16 µM, first compound 3 µM) 32.8% | viability, T/C [22] 90.7% | viability, T/C [23] 84.9% | viability, T/C [24] 62.8% | viability, T/C [25] 53.6% | viability, T/C (second compound 10 µM, first compound 0.949 µM) 41.3% | viability, T/C (second compound 10 µM, first compound 3 µM) 42.8%

O=C(C=Cn1cnc(-c2cc(C(F)(F)F)cc(C(F)(F)F)c2)n1)NNc1cnccn1 + NC1CCC(NC2CC2c2ccccc2)CC1
inactive: viability, T/C (second compound 0.1 µM, first compound 0.00316 µM) 72.7% | viability, T/C (second compound 0.1 µM, first compound 0.01 µM) 62.3% | viability, T/C [26] 49.8% | viability, T/C [27] 36.2% | viability, T/C [28] 30.7% | viability, T/C [29] 23.9% | viability, T/C (second compound 0.316 µM, first compound 0.00316 µM) 75% | viability, T/C (second compound 0.316 µM, first compound 0.01 µM) 69.8% | viability, T/C [30] 57.9% | viability, T/C [31] 34.6% | viability, T/C [32] 34% | viability, T/C [33] 21% | viability, T/C (second compound 1 µM, first compound 0.00316 µM) 67% | viability, T/C (second compound 1 µM, first compound 0.01 µM) 65.1% | viability, T/C [34] 49.8% | viability, T/C [35] 31.3% | viability, T/C [36] 30.3% | viability, T/C [37] 24.3% | viability, T/C (second compound 3.16 µM, first compound 0.00316 µM) 64.9% | viability, T/C (second compound 3.16 µM, first compound 0.01 µM) 61.2% | viability, T/C [38] 53% | viability, T/C [39] 31.8% | viability, T/C [40] 30.3% | viability, T/C [41] 20.5% | viability, T/C (second compound 10 µM, first compound 0.00316 µM) 72.7% | viability, T/C (second compound 10 µM, first compound 0.01 µM) 70.5% | viability, T/C [42] 47.2% | viability, T/C [43] 31.5% | viability, T/C [44] 30.8% | viability, T/C [45] 21.6%
7.50: pIC50 [3]
7.53: pIC50 [1]
7.54: pIC50 [5]
7.33: pIC50 [2]
7.45: pIC50 [4]

CC1COCCN1c1cc(C2(S(C)(=N)=O)CC2)nc(-c2ccnc3[nH]ccc23)n1 (centres undefined)
inactive: viability, T/C (compound 0.0316 µM) 103% and 94.9% | viability, T/C (compound 0.1 µM) 97.9% and 102% | viability, T/C (compound 0.316 µM) 107% and 81.7% | viability, T/C (compound 1 µM) 75.8% and 67.1% | viability, T/C (compound 3.16 µM) 45.8% and 42.4% | viability, T/C (compound 10 µM) 48.6% and 44.5%
5.55 and 5.60: pIC50 (curve of compound)

Nc1ccn(C2OC(CO)C(O)C2(F)F)c(=O)n1 (centres undefined) + NC1CC1c1ccc(-c2cccc(O)c2)cc1
7.04: pIC50 [5]
7.34: pIC50 [4]
7.42: pIC50 [3]
inactive: viability, T/C (second compound 0.1 µM, first compound 0.000949 µM) 82.5% | viability, T/C (second compound 0.1 µM, first compound 0.003 µM) 72.9% | viability, T/C [6] 63.4% | viability, T/C [7] 48% | viability, T/C [8] 41.9% | viability, T/C [9] 37.2% | viability, T/C (second compound 0.316 µM, first compound 0.000949 µM) 87.9% | viability, T/C (second compound 0.316 µM, first compound 0.003 µM) 73.4% | viability, T/C [10] 68% | viability, T/C [11] 49.5% | viability, T/C [12] 44.9% | viability, T/C [13] 35.8% | viability, T/C (second compound 1 µM, first compound 0.000949 µM) 75% | viability, T/C (second compound 1 µM, first compound 0.003 µM) 84.5% | viability, T/C [14] 63.6% | viability, T/C [15] 53.2% | viability, T/C [16] 41.1% | viability, T/C [17] 32% | viability, T/C (second compound 3.16 µM, first compound 0.000949 µM) 98.5% | viability, T/C (second compound 3.16 µM, first compound 0.003 µM) 81.2% | viability, T/C [18] 67.1% | viability, T/C [19] 56% | viability, T/C [20] 42.1% | viability, T/C [21] 31.5% | viability, T/C (second compound 10 µM, first compound 0.000949 µM) 103% | viability, T/C (second compound 10 µM, first compound 0.003 µM) 99% | viability, T/C [22] 95.5% | viability, T/C [23] 69.3% | viability, T/C [24] 51.3% | viability, T/C [25] 40.2%
7.37: pIC50 [2]
7.55: pIC50 [1]

COc1ccc([C@@H](O)c2cc(-c3ncnc4cc(N5CCOCC5)ccc34)c(F)cc2Cl)nn1 + NC1CCC(NC2CC2c2ccccc2)CC1
5.95: pIC50 [3]
5.93: pIC50 [2] | pIC50 [4]
6.29: pIC50 [5]
inactive: viability, T/C [26] 94.5% | viability, T/C [27] 114% | viability, T/C [28] 89.8% | viability, T/C [29] 49% | viability, T/C (second compound 0.1 µM, first compound 3.16 µM) 30.2% | viability, T/C (second compound 0.1 µM, first compound 10 µM) 14.2% | viability, T/C [30] 112% | viability, T/C [31] 87.4% | viability, T/C [32] 69.6% | viability, T/C [33] 59.8% | viability, T/C (second compound 0.316 µM, first compound 3.16 µM) 30.8% | viability, T/C (second compound 0.316 µM, first compound 10 µM) 13.9% | viability, T/C [34] 79.7% | viability, T/C [35] 98.3% | viability, T/C [36] 79.2% | viability, T/C [37] 50.4% | viability, T/C (second compound 1 µM, first compound 3.16 µM) 28.4% | viability, T/C (second compound 1 µM, first compound 10 µM) 13.4% | viability, T/C [38] 77.7% | viability, T/C [39] 102% | viability, T/C [40] 77.9% | viability, T/C [41] 55% | viability, T/C (second compound 3.16 µM, first compound 3.16 µM) 23.9% | viability, T/C (second compound 3.16 µM, first compound 10 µM) 14.7% | viability, T/C [42] 71.3% | viability, T/C [43] 74.8% | viability, T/C [44] 56.7% | viability, T/C [45] 37.7% | viability, T/C (second compound 10 µM, first compound 3.16 µM) 22.9% | viability, T/C (second compound 10 µM, first compound 10 µM) 12.1%
5.98: pIC50 [1]

CCN(c1cc(-c2ccc(CN3CCOCC3)cc2)cc(C(=O)NCc2c(C)cc(C)[nH]c2=O)c1C)C1CCOCC1
inactive: viability, T/C (compound 0.00949 µM) 114% and 95.8% | viability, T/C (compound 0.03 µM) 107% and 113% | viability, T/C (compound 0.0949 µM) 117% and 106% | viability, T/C (compound 0.3 µM) 96.4% and 99.3% | viability, T/C (compound 0.949 µM) 81.8% and 84.4% | viability, T/C (compound 3 µM) 63.5% and 72.9%
< 5.52: pIC50 (curve of compound)
